The text below walks through data of US20260227408A1, “Compositions and Methods for Modulation of Immune Responses” (Flagship Pioneering Innovations VI, LLC, priority 2022, published 2026).

For data set [1], the system named is Raji cells (human B cell lymphoma). Nature of the data set: pooled CRISPR KO screen: Raji cell killing by primary NK cells. Format: cell-based. Conditions: CRISPR KO of the protein in Raji cells, 24 hours co-culture with primary NK cells; for co-stimulatory effect on NK cytotoxicity (loss of function inhibits Raji cell killing): Example 4; for inhibitory effect on NK cytotoxicity (loss of function potentiates Raji cell killing): Example 5. On the procedure: CRISPR system was used to generate a pooled KO library comprising 4,708 individual novel proteins within 2,127 lncRNAs and 998 known proteins in Raji cells (human B cell lymphoma). To understand the role of these proteins in modulation of NK cell cytotoxicity we conducted a cell killing assay using primary human NK cells. We examined the change in the initial library representation in Raji cells with the library representation after 24 hours of co-incubation with NK cells. We used known regulators of NK cell cytotoxicity as reference to establish hit significance.
CRISPR KO generation. CRISPR guide RNA library has been designed at ProFound Therapeutics to target 4,708 distinct predicted novel proteins localized within 2,127 lncRNA, 998 known proteins, including positive (inhibitors, for example B2M, TAP1, TAP2, HLA-DM) and negative (co-stimulators, for example, ICAM1, FAS, IL7, DGKE) of NK cell function, and 900 neutral controls (non-targeting and intergenic guide RNAs). The CRISPR guide RNA library was packaged into lentivirus, transduced into Raji Cas9 line at the MOI of 0.3 and selected using puromycin selection as described in [Sanjana N E, Shalem O, Zhang F. Nat. Methods. 2014 August; 11(8):783-4.
NK isolation and expansion. Primary human NK cells were isolated from frozen PBMCs using EasySep human NK cell isolation kit (StemCell, catalog #17955). Primary human NK cells were expanded using immunoCult NK cell expansion kit (StemCell, catalog #100-0711) following manufacturer protocol.
Screen setup. The screen was performed using 4 biological replicates. The NK cytotoxicity assay was performed by co-culturing 20 million Raji CRISPR KO library cells with 60 million primary NK cells for 24 hours in T75 tissue culture flask. NK cells were removed using positive CD56 selection kit (StemCell, catalog #17855). Dead cells were removed using EasySep dead cell removal (Annexin V) kit (StemCell, catalog #17899). Remaining Raji CRISPR KO library cells have been processed to extract genomic DNA. NGS library prep and illumina sequencing was performed on these cells and Raji cells prior to exposure to NK as described in [Sanjana N E, Shalem O, Zhang F. Nat. Methods. 2014 August; 11(8):783-4.
Data analysis. Screen analysis and interpretation was performed using ProFound Tx custom data analysis tools and confirmed with MAGeCK-VISPR as described in [Li W, Koster J, Xu H, Chen C H, Xiao T, Brown M, Liu S. Genome Biology 2015(281)].
Data analysis. Screen analysis and interpretation has been performed using ProFound Tx custom data analysis tools and confirmed with MAGeCK-VISPR as described in [Li W, Koster J, Xu H, Chen C H, Xiao T, Brown M, Liu S. Genome Biology 2015(281)].

Data set [2] concerns Interferon Regulatory Factor (IRF) pathway in THP-1 dual reporter cells. Put plainly: THP-1 dual reporter assay (IRF-Lucia luciferase) with TLR agonists. Format: cell-based. Here is the method:
(§1) To determine the effect of the Target Protein on TLR activity, the Target Protein, irrelevant proteins and controls were applied+/−established TLR agonists to a commercial reporter cell line which monitors the two main signal transduction pathways that respond to TLR activation. To determine which immune cells are most responsive to the Target Proteins, the Target Proteins were applied to Peripheral Blood Mononuclear Cells (PBMCs) and then 24 hours later the PBMCs were subjected to single cell RNA-seq using cell hashing.
Dual Reporter Assay: From example: NF-kB-SEAP and IRF-Lucia luciferase reporter monocyte (THP1) cells (InvivoGen) are cultured in RPMI 1640 media supplemented with HEPES buffer (10 mM), sodium pyruvate (1 mM), glucose (4.5 g/L), fetal bovine serum (10%), penicillin (100 U/mL), streptomycin ([…]), and 2-mercaptoethanol (0.05 mM). THP1 cells are treated with 100 ng/mL LPS (Sigma-Aldrich) for 24 hrs, the target protein (final conc. 10 μM), or left untreated.
After treatment, THP1 cells are cultured for 24 hrs and then assayed for reporter activity. Both reporter proteins are measurable in the cell culture supernatant when using QUANTI-Blue (InvivoGen), a SEAP detection reagent, and QUANTI-Luc (InvivoGen), a luciferase detection reagent. QUANTI-Blue is a colorimetric enzyme assay developed to determine any alkaline phosphatase activity in a biological sample, such as cell culture supernatant. QUANTI-Luc is a lyophilized assay reagent containing all the components required to quantitatively measure the activity of Lucia Luciferase other coelenterazine-utilizing luciferases. Increased reporter activity after treatment with target protein is observed in cells where the target protein is immune stimulating. Additionally, decreased reporter activity after treatment with the target protein is observed in cells where the target protein is immune dampening.
For orientation: Reporter assays use an easily measured gene product as a stand-in for the process of interest.

Data set [3] deals with Peripheral Blood Mononuclear Cells (PBMCs). Nature of the data set: single cell RNA-seq of PBMCs treated with target protein. Format: cell-based, human. Conditions: 24 hours, vs scrambled protein control, FIG. 5A, 5B. On the procedure:
as §1
scRNA-seq: From example: Shifts in cell populations after treatment with Target Proteins are assessed by single cell RNA-seq (scRNA-seq). Target proteins (e.g., listed in the Sequence Listing) are synthesized through Fluorenylmethyloxycarbonyl (Fmoc) protection group chemistry using Solid Phase Peptide Synthesis (SPPS). Human primary blood mononuclear cells are seeded at […] in each well of 12-well plate with 1 ml of RPMI-1640 (10% FBS). […]
Post sequencing, reads are aligned to the human reference genome (GENCODE34/GRCH38). Reads are demultiplexed using DNA-barcoded antibodies and run through quality control (g. doublets are removed, singlet cells are selected with less than 15% mitochondria contamination at RNA levels and reads contain higher than 500 genes). […]

Setting [4] is: 10 μM, 24 hours, vs scramble peptide, FIG. 4.

“SEQ ID NO: 33482: novel co-stimulatory ligand that potentiates NK-mediated cytotoxicity; lncRNA-encoded protein (VVTGSILLSLPITQHLPLKALPRPGLPPFKMSGSVQDLLLGHIALLGLVQVILPPQPPK; listed as Homo sapiens)”: the “co-stimulatory effect on NK cytotoxicity (loss of function inhibits Raji cell killing)” value in data set [1] is given as “strong phenotypes”.
Consider “SEQ ID NO: 35586: novel inhibitory ligand that suppresses NK-mediated cytotoxicity; lncRNA encoded protein (MWQNLNGDISSLWVSSLLAFNQLFCLTAAGLGTAQPP; listed as Homo sapiens)”, for which the “inhibitory effect on NK cytotoxicity (loss of function potentiates Raji cell killing)” value in data set [1] is given as “strong phenotypes”.
“SEQ ID NO: 37413: Target Protein validated as a modulator of the innate immune response; toll-like receptor (TLR) inhibitor (MAAPSNKTELAWSPRLAA; listed as Homo sapiens)”: in data set [2] (setting [4]), the “IRF response, co-treatment with TLR1/2 agonist” value was “inhibited”; the “IRF response, co-treatment with TLR2 agonist” value was “no significant effect”; the “IRF response, co-treatment with TLR3 agonist” value was “no significant effect”; the “IRF response, co-treatment with TLR4 agonist” value is “inhibited”. In data set [2] (setting [4]), the “IRF response, co-treatment with TLR5 agonist” value is “no significant effect”; the “IRF response, co-treatment with TLR6/2 agonist” value was “inhibited”; the “IRF response, co-treatment with TLR7 agonist” value was “no significant effect”; the “IRF response, co-treatment with TLR8 agonist” value is on record as “no significant effect”. The “IRF response, co-treatment with TLR9 agonist” value in data set [2] (setting [4]) is on record as “no significant effect”. Further, in data set [2] (THP-1 dual reporter cells, FIG. 3, FIG. 4), the “IRF signal transduction pathway response from several TLRs” value is “significantly blocks”. The “relative IRF activity (reporter gene expression)” value in data set [2] (increasing peptide concentrations (0, 2.5, 5, 7.5, and 10 PM) in presence of LPS, 24 hours, FIG. 3) is recorded as “inhibition”. Further, in data set [3], the “effect on T-cells, B-cells, and NK-cells (up- and downregulated genes, scRNA-seq)” value is listed as “relatively small effects”; the “effect on active monocytes and dendritic cells (up- and downregulated genes, scRNA-seq)” value is reported as “strongly affected”.

B1: SEQ ID NO: 35050: novel co-stimulatory ligand that potentiates NK-mediated cytotoxicity; lncRNA-encoded protein (protein, listed as Homo sapiens)
chain: IYAHVGTEESSVVAMFSPQELTGEGMGQDPSLCKASVTVMFQVFLMTVCLYLTVLLTNNLLGSKGQHLLSKAQEEFEEN
Take B1: the “co-stimulatory effect on NK cytotoxicity (loss of function inhibits Raji cell killing)” value in data set [1] was “strong phenotypes”.

B2: SEQ ID NO: 36545: novel inhibitory ligand that suppresses NK-mediated cytotoxicity; lncRNA encoded protein (protein, listed as Homo sapiens)
chain: MPEDLLFLDAAAQGLYFMLWLLSFELSVAVSELLRFTGPWRILSYTVHWVLDMQSVPFIAFLENNN
As to B2, in data set [1], the “inhibitory effect on NK cytotoxicity (loss of function potentiates Raji cell killing)” value is “strong phenotypes”.

B3: SEQ ID NO: 37776: novel co-stimulatory ligand that potentiates NK-mediated cytotoxicity; lncRNA-encoded protein (protein, listed as Homo sapiens)
chain: MACIYPTTFYTSLPTKSLNMGISLTTILILSVAVLLSTAAPPSCRECYQSLHYRGEMQQYFTYHTHIERSCYGNLIEECVESGKSYYKVKNLGVCGSRNGAICPRGKQWLCFTKIGQWGVNTQVLEDIKREQIIAKAKASKPTTPPENRPRHFHSFIQKL
For B3, the “co-stimulatory effect on NK cytotoxicity (loss of function inhibits Raji cell killing)” value in data set [1] is given as “strong phenotypes”.

B4: SEQ ID NO: 2013: novel inhibitory ligand that suppresses NK-mediated cytotoxicity; lncRNA encoded protein (protein, listed as Homo sapiens)
chain: MLSEGKPIPRREGKTATTERTFAVPVWKEIGISWRGLASTAGLFKSSTSILEENNADSRKMACHFGMCLAALLIKGKVLFFTF
As for B4, in data set [1], the “inhibitory effect on NK cytotoxicity (loss of function potentiates Raji cell killing)” value is on record as “strong phenotypes”.
